Results as given in US20250213534A1, “5-METHOXY-N,N-[…][…] THE TREATMENT OF COGNITIVE DYSFUNCTION” (GH RESEARCH IRELAND LIMITED, priority 2022, published 2025).

What was measured:
[1] = test system: patients with postpartum depression (PPD); assay: Clinical trial of 5-MeO-DMT via inhalation (individualized dosing regimen) in postpartum depression; details: n=1
Protocol: The single-arm, open-label clinical trial will involve 15 adult female patients with clinically diagnosed postpartum depression (PPD).
The second dose (12 mg) will only be administered if: • a. A peak experience (total score of ⋅75) has not been achieved following the 6 mg dose, and • b. The 6 mg dose was safe and well-tolerated according to the investigator, • c. Any psychoactive effects (PsE) of the prior dose have subsided, and • d. Pre-dose vital parameters and forced expiratory volume in one second (FEV1) are in normal range, or if outside of the normal range, are not clinically significant according to the investigator. • 3. Similarly, a third dose (18 mg) will only be administered if: • a. A peak experience (total score of ⋅75) has not been achieved following the 12 mg dose, and • b. The 12 mg dose was safe and well-tolerated according to the investigator, and • c. Any PsE of the prior dose have subsided, and • d. Pre-dose vital parameters and forced expiratory volume in one second (FEV1) are in normal range, or if outside of the normal range, are not clinically significant according to the investigator.
The patients will be assessed for a peak psychedelic experience (based on a patient-scored visual analogue scale, the PE scale), sedation, and other endpoints after dosing. Follow-up visits are planned for Day 1, and Day 7 after the dosing day.
The following criteria must be met by all patients considered for clinical trial participation: • 1. Is female and in the age range between 18 and 45 years (inclusive) at screening. • 2. Has a body mass index (BMI) in the range of 18.5 and 35 kg/m^2 (inclusive) at screening. • 3. Meets the trial criteria for PPD as assessed by a trial psychiatrist or registered psychologist: • a. Diagnosis of Major Depressive Disorder without psychotic features, confirmed by the Mini-International Neuropsychiatric Interview (MINI), with peri-partum onset that began no earlier than gestation and no later than the first 4 weeks postpartum. • b. Has a Montgomery-Åsberg Depression Rating Scale (MADRS) total score of equal to or greater than 28 at screening and pre-dose on Day 0. • 6. […] Patients must have a negative pregnancy test at screening and on the pre-test day (Day −1). • 5. Is willing to delay start of other antidepressant or anxiety medication until after the end of the trial at Day 7 and agrees to keep any psychotherapy unchanged during the trial.

[2] = Pharmacokinetics after single dose via inhalation (LC-MS/MS); type: in vivo, human; details: after 3 hours; whole dose range 6, 12, 18 mg
[3] = test system: Escherichia coli (WP2 uvrA pKM101); assay: Bacterial mutation test; type: cell-based; details: up to 5000 μg/plate; absence and presence of rat liver S-9
Protocol: (§1) These conditions included treatments at concentrations up to 5000 μg/plate (the maximum recommended concentration according to current regulatory guidelines), in the absence and in the presence of a rat liver metabolic activation system (S-9).

[4] = test system: Salmonella typhimurium (TA98, TA100, TA1535 and TA1537); assay: Bacterial mutation test; type: cell-based; details: up to 5000 μg/plate; absence and presence of rat liver S-9
Protocol: as §1

COc1ccc2[nH]cc(CCN(C)C)c2c1 [5-MeO-DMT]
Inhalation-related adverse events [1]: no inhalation-related adverse events
MADRS remission (MADRS total score equal or less than 10) [1]: fulfilled
MADRS response (at least 50% improvement from baseline) [1]: fulfilled
Reported adverse events (cramping left abdominal pain and headache, Day 0) [1]: mild, short-lasting and resolved spontaneously
BIMF total score improvement ([1]; Day 7, from 92 to 105): 14%
BIMF item 2 score: I feel rested ([1]; Day 7, Day 0 0): 2
BIMF item 19 score: As time goes on, I am getting better at taking care of my baby ([1]; Day 7, Day 0 0): 1
BIMF item 18 score: Anxiety or worry often interferes with my mothering ability ([1]; Day 7, Day 0 2): 5
BIMF item 16 score: I worry about how other people judge me (as a mother) ([1]; Day 7, Day 0 3): 5
BIMF item 13 score: I am taking good care of my physical needs (eating, showering, etc) ([1]; Day 7, Day 0 4): 5
BIMF item 4 score: My baby and I understand each other ([1]; Day 7, Day 0 5): 5
BIMF item 5 score: I am able to relax and enjoy time with my baby ([1]; Day 7, Day 0 5): 6
BIMF item 9 score: I am getting enough encouragement from other people ([1]; Day 7, Day 0 5): 6
BIMF item 10 score: I trust my own feelings (instincts) when it comes to taking care of my baby ([1]; Day 7, Day 0 5): 6
BIMF item 11 score: I take a little time each week to do something for myself ([1]; Day 7, Day 0 5): 6
BIMF item 15 score: My baby and I are getting into a routine ([1]; Day 7, Day 0 5): 6
BIMF item 17 score: I am able to take care of my baby and my other responsibilities ([1]; Day 7, Day 0 5): 5
BIMF item 1 score: I am a good mother ([1]; Day 7, Day 0 6): 6
BIMF item 3 score: I am comfortable with the way I've chosen to feed my baby (either bottle or breast, or both) ([1]; Day 7, Day 0 6): 6
BIMF item 6 score: There are people in my life that I can trust to care for my baby when I need a break ([1]; Day 7, Day 0 6): 6
BIMF item 8 score: I am getting enough adult interaction ([1]; Day 7, Day 0 6): 6
BIMF item 12 score: I am taking good care of my baby's physical needs (feedings, changing diapers, doctor's appointments) ([1]; Day 7, Day 0 6): 6
BIMF item 14 score: I make good decisions about my baby's health and well being ([1]; Day 7, Day 0 6): 6
BIMF item 20 score: I am satisfied with the job I am doing as a new mother ([1]; Day 7, Day 0 6): 5
BIMF item 1 Δ (Day 7) ([1]; Day 7 vs Day 0): 0
BIMF item 2 Δ (Day 7) ([1]; Day 7 vs Day 0): 2
BIMF item 3 Δ (Day 7) ([1]; Day 7 vs Day 0): 0
BIMF item 4 Δ (Day 7) ([1]; Day 7 vs Day 0): 0
BIMF item 5 Δ (Day 7) ([1]; Day 7 vs Day 0): 1
BIMF item 6 Δ (Day 7) ([1]; Day 7 vs Day 0): 0
BIMF item 7 Δ (Day 7) ([1]; Day 7 vs Day 0): 0
BIMF item 8 Δ (Day 7) ([1]; Day 7 vs Day 0): 0
BIMF item 9 Δ (Day 7) ([1]; Day 7 vs Day 0): 1
BIMF item 10 Δ (Day 7) ([1]; Day 7 vs Day 0): 1
BIMF item 11 Δ (Day 7) ([1]; Day 7 vs Day 0): 1
BIMF item 12 Δ (Day 7) ([1]; Day 7 vs Day 0): 0
BIMF item 13 Δ (Day 7) ([1]; Day 7 vs Day 0): 1
BIMF item 14 Δ (Day 7) ([1]; Day 7 vs Day 0): 0
BIMF item 15 Δ (Day 7) ([1]; Day 7 vs Day 0): 1
BIMF item 16 Δ (Day 7) ([1]; Day 7 vs Day 0): 2
BIMF item 17 Δ (Day 7) ([1]; Day 7 vs Day 0): 0
BIMF item 18 Δ (Day 7) ([1]; Day 7 vs Day 0): 3
BIMF item 19 Δ (Day 7) ([1]; Day 7 vs Day 0): 1
BIMF item 20 Δ (Day 7) ([1]; Day 7 vs Day 0): −1
Time to clinical remission after administration ([1]; IDR 6 mg followed by 12 mg): ≤ 2 h
Detectability in the plasma [2]: no longer detectable
Induction of mutation [3]: did not induce mutation
Induction of mutation [4]: did not induce mutation
